For this experiment, the target named is T1, Ulex Europaeus Agglutinin (UEA lectin) (Ulex europaeus, UniProt P22972).
T1 sequence (P22972 1-243): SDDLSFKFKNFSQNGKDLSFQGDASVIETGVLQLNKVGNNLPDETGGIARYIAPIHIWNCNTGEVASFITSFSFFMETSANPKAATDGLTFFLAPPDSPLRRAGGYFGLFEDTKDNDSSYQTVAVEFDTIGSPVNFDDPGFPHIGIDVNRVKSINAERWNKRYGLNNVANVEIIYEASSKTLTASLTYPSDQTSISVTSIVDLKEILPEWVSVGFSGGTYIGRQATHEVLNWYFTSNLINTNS
The experiment is described as follows: Pull-down of liquid glycan array and deep sequencing. Particulars: array of 74 glycans; FIG. 6H. In kind it is binding. The source says: The washing step was repeated three times.

For the substance “Fucα1-2Galb1-4[Fucα1-3]GlcNAcb-Phage [Te118]”, the “Enrichment in pull down by plant lectin UGA” value is on record as “enrichment not detected”.

Turning to “GalNAcα1-3 [Fucα1-2]Galβ1-4G1cNAcβ-Phage [Te222]”, the “Enrichment in pull down by plant lectin UGA” value is recorded as “enrichment not detected”.

These data come from patent US12618062B2, “Display of molecules on silently genetically encoded nanoscale carriers for determining synergistic molecular interactions” (The Governors of the University of Alberta, priority 2017, dated 2026).
